The text below walks through data of patent US20070259909A1, “Novel Difluoroethoxy-Substituted Hydroxy-6-Phenylphenanthridines and Their Use as Pde4 Inhibitors” (ALTANA PHARMA AG, priority 2004, published 2007).

In this assay the target is T1, PDE4B2 (Homo sapiens, UniProt Q07343).
T1 construct: made in house; host or cells: SF21 insect cells (baculovirus; virus generated in SF9 cells)
Nature of the assay: PDE4B2 [3H]cAMP SPA enzyme assay (inhibition of PDE4 activity). Type of assay: biochemical. The conditions noted are these: recombinant PDE4B2 (GB no. M97515) expressed in SF21 insect cells; cAMP substrate; 37° C., 15 min; read-out: -log IC50(mol/l), Inhibition of the PDE4 activity (converted). On the procedure:
The PDE4B2 (GB no. M97515) was a gift of Prof. M. Conti (Stanford University, USA). It was amplified from the original plasmid (pCMV5) via PCR with primers Rb9 (5′-[…]-3′) and Rb10 (5′-[…]-3′) and cloned into the pCR-Bac vector (Invitrogen, Groningen, NL).
The recombinant baculovirus was prepared by means of homologous recombination in SF9 insect cells. The expression plasmid was cotransfected with Bac-N-Blue (Invitrogen, Groningen, NL) or Baculo-Gold DNA (Pharmingen, Hamburg) using a standard protocol (Pharmingen, Hamburg). Wt virus-free recombinant virus supernatant was selected using plaque assay methods. After that, high-titre virus supernatant was prepared by amplifying 3 times. […]
The SF21 insect cells were resuspended, at a concentration of approx. 10^7 cells/ml, in ice-cold (° C.) homogenization buffer (20 mM Tris, pH 8.2, containing the following additions: 140 mM NaCl, 3.8 mM KCl, 1 mM EGTA, 1 mM MgCl2, 10 mM P-mercaptoethanol, 2 mM benzamidine, 0.4 mM Pefablock, 10 μM leupeptin, […] pepstatin A, 5 μM trypsin inhibitor) and disrupted by ultrasonication. […] The protein content was determined by the Bradford method (BioRad, Munich) using BSA as the standard. […]
Representative inhibitory values determined for the compounds according to the invention follow from the following table A, in which the numbers of the compounds correspond to the numbers of the Examples.

T1 sequence (Q07343 1-564 isoform Q07343-2): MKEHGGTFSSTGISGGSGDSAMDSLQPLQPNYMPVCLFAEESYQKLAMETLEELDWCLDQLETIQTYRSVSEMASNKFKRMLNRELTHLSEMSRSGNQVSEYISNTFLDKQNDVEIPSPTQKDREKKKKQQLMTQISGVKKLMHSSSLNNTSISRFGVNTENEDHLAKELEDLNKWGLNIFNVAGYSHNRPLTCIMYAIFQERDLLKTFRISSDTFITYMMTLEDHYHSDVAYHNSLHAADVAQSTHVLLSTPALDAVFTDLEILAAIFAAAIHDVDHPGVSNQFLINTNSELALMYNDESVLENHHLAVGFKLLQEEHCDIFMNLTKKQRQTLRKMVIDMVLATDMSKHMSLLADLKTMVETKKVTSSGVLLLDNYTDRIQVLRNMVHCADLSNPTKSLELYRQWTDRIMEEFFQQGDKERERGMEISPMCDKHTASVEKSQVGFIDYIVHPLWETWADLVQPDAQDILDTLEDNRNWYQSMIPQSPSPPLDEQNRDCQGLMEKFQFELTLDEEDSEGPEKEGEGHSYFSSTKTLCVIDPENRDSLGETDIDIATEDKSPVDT

Regarding `COc1cc2c(cc1OCC(F)F)C1CC(O)CCC1N=C2c1ccc(F)cc1` (racemic) [Compound 1, (2RS,4aRS,10bRS)-9-(2,2-Difluoroethoxy)-6(4fluorophenyl)-8-methoxy-(1,2,3,4,4a,10b)-hexahydrophenanthridin-2-ol], the IC50 is 0.708 nM.
The value for `COc1cc2c(cc1OCC(F)F)[C@H]1C[C@H](O)CC[C@H]1N=C2c1ccc(C#N)cc1` (racemic) [Compound 3, 4-[(2RS,4aRS,10bRS)-9-(2,2-Difluoro-ethoxy)-2-hydroxy-8-methoxy-1,2,3,4,4a,10b-hexahydro-phenanthridin-6-yl]-benzonitrile] was 1.82 nM.
